ChEMBL document CHEMBL4028847, “Perspectives of Cannabinoid Type 2 Receptor (CB2R) Ligands in Neurodegenerative Disorders: Structure-Affinity Relationship (SAfiR) and Structure-Activity Relationship (SAR) Studies” (J Med Chem, 2017)

How the values were obtained:
[1] = species on record: Homo sapiens; assay: Selectivity index, ratio of Ki for CB1 receptor (unknown origin) to Ki for CB2 receptor (unknown origin)
[2] = species on record: Homo sapiens; assay: Selectivity index, ratio of EC50 for human CB1 receptor to Ki for human CB2 receptor
[3] = biological target: T1, Cannabinoid receptor 1 (Homo sapiens, UniProt P21554); assay: Agonist activity at human CB1 receptor expressed in mouse AtT-20 cells co expressing GIRK by FLIPR assay; assay type: cell-based
[4] = biological target: T2, Cannabinoid receptor 2 (Homo sapiens, UniProt P34972); assay: Inhibition of CB2 receptor (unknown origin)
[5] = biological target: T2, Cannabinoid receptor 2; assay: Binding affinity to CB2 receptor (unknown origin)
[6] = biological target: T1, Cannabinoid receptor 1; assay: Binding affinity to CB1 receptor (unknown origin)
[7] = biological target: T2, Cannabinoid receptor 2; assay: Agonist activity at human CB2 receptor expressed in mouse AtT-20 cells co expressing GIRK by FLIPR assay; assay type: cell-based
[8] = biological target: T2, Cannabinoid receptor 2; assay: Activity at CB2 receptor (unknown origin)

T1 sequence (P21554 whole entry): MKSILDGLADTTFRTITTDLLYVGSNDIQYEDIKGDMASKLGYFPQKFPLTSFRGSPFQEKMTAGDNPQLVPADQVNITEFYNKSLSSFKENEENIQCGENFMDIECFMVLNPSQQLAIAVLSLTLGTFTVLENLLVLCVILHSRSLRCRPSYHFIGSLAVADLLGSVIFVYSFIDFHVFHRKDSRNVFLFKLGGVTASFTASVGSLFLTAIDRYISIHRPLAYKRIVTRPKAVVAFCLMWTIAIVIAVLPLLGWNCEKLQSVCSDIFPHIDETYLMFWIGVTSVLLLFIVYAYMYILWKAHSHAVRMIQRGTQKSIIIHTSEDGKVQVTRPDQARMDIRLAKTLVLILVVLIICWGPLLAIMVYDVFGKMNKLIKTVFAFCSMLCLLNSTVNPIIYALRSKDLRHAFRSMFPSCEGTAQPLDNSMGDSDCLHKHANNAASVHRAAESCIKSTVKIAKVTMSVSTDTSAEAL
T2 sequence (P34972 whole entry): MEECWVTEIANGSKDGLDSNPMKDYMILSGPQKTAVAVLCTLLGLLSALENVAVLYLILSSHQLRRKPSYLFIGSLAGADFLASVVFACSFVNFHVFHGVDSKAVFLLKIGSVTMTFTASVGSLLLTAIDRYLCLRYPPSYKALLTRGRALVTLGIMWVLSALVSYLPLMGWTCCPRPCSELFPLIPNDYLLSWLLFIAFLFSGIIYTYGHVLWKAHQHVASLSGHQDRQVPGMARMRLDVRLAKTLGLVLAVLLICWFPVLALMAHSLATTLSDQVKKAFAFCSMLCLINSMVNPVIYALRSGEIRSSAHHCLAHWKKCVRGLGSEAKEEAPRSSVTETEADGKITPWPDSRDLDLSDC

CCCc1sc(NC(=O)C23CC4CC(CC(C4)C2)C3)c(C(=O)OC)c1C showed a Ratio Ki ([1]; tested as the 11C-labelled form) of 256.
In the case of CCCCCn1nc(C(=O)N[C@H](C(N)=O)C(C)C)c2ccccc21, the Ratio EC50 [2] is reported as 1.5 to 3.2 and the EC50 [3] is reported as 2.1 to 7.8 nM.
Work on CC(C)[C@H](NC(=O)c1nn(CC2CCCCC2)c2ccccc12)C(N)=O yielded a Ratio EC50 [2] of 1.5 to 3.2 and an EC50 [3] of 2.1 to 7.8 nM.
[2H]C([2H])([18F])Oc1nc(NCCc2ccc(F)cc2)nc(-c2ccc(Cl)c(C(C)(C)O)c2)n1 gave an IC50 [4] of 1.4 nM.
CCCc1sc(NC(=O)C23CC4CC(CC(C4)C2)C3)c(C(=O)O[11CH3])c1C gave a Ki [5] of 4.3 nM and a Ki [6] of 1100 nM.
In the case of CCCCn1cc(C(=O)c2ccccc2OC)c2ccccc21, the EC50 [7] is reported as 4.5 nM, the Selectivity Index [2] is reported as 39.6 and the EC50 [3] is reported as 178 nM.
In the case of COc1cccc2c(=O)c(C(=O)NC34CC5CC(CC(C5)C3)C4)cn(CCOCC[18F])c12, the Ki [5] is reported as 1.2 nM and the Ki [6] is reported as over 10000 nM.
Molecule CC(C)[C@H](NC(=O)c1nn(CCCCCF)c2ccccc12)C(N)=O has a Ratio EC50 [2] of 1.5 to 3.2 and an EC50 [3] of 2.1 to 7.8 nM.
CCOc1nc(NC2CCCC2)nc(N2CCN(CC[18F])CC2)n1 gave an EC50 [8] of 40 nM.
Work on CC(C)[C@H](NC(=O)c1nn(Cc2ccc(F)cc2)c2ccccc12)C(N)=O yielded an EC50 [3] of 2.1 to 7.8 nM.
In the case of CCCCCn1cc(C(=O)c2ccccc2OC)c2ccccc21, the EC50 [7] is reported as 6.9 nM, the Selectivity Index [2] is reported as 7.8 and the EC50 [3] is reported as 54 nM.
Molecule COc1cccc2c(=O)c(C(=O)NC34CC5CC(CC(C5)C3)C4)cn(CCOCCF)c12 has a Ratio Ki ([1]; tested as the 18F-labelled form) of over 8330.
Molecule CCOCCn1cc(C(=O)NC23CC4CC(CC(C4)C2)C3)c(=O)c2cccc(O[11CH3])c21 has a Ki [6] of over 10000 nM.
